Reference: patent US10472364B2 (Calithera Biosciences, Inc., priority 2016, dated 2019)

Molecular target: endogenous, cell-bound CD73 on SK-MEL-28 cells (Homo sapiens (Human), UniProt P21589)
Experiment: Inhibition of endogenous, cell-bound CD73 enzyme activity in SK-MEL-28 cells (Malachite Green)
Type: cell-based
Conditions: 100 μM AMP, 30 minutes at room temperature
Description: The day before the experiment, 5000 cells were plated per well in a 96-well plate. Cells were washed twice with […] reaction buffer (20 mM HEPES, pH 7.4, 125 mM NaCl, 1 mM KCl, 2 mM MgCl2, 10 mM glucose) to remove residual inorganic phosphate. After washing, assays contained serial dilutions of test compounds and 100 μM of AMP in a total volume of 200 μL reaction buffer, with a final DMSO concentration≤0.5%. After 30 minutes at room temperature, supernatant was removed from the cells. […] The concentration of inorganic phosphate was determined using a phosphate standard curve to determine IC50.

Sequence of endogenous, cell-bound CD73 on SK-MEL-28 cells (P21589 27-574): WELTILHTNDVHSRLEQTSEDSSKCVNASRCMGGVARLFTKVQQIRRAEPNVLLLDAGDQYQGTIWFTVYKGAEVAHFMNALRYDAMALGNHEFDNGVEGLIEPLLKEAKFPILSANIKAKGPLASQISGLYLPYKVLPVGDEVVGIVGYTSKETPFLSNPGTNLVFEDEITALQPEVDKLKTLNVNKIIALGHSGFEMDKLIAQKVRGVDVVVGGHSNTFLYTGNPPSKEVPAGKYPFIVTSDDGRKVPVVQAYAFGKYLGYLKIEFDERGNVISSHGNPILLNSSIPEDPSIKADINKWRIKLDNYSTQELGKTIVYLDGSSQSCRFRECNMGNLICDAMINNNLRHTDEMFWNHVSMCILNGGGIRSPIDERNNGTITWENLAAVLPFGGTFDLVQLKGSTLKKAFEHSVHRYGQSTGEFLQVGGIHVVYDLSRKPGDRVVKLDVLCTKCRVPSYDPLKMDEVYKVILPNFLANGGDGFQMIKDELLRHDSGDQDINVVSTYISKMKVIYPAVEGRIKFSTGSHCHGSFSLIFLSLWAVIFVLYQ

Row | Structure (SMILES) | IC50 [nM]
1 | Nc1nc(Cl)nc2c1ncn2[C@@H]1O[C@H](COC(Cc2cccc(OC(F)(F)F)c2)(C(=O)O)C(=O)O)[C@@H](O)[C@@H]1F [compound 15, 2-(((2R,3R,4S,5R)-5-(6-amino-2-chloro-9H-purin-9-yl)-4-fluoro-3-hydroxytetrahydrofuran-2-yl)methoxy)-2-(3-(trifluoromethoxy)benzyl)malonic acid] | 1580
2 | CC(C)(C)OC(=O)Nc1nc(N=[N+]=[N-])nc2c1ncn2[C@@H]1O[C@H](COC(Cc2cccc(C#N)c2)(C(=O)O)C(=O)O)[C@@H](O)[C@@H]1F [compound 41] | 4880
3 | CCOC(=O)C(Cc1ccc(OC(F)(F)F)cc1)(OC[C@H]1O[C@@H](n2cnc3c(N)nc(Cl)nc32)[C@@H](F)[C@@H]1O)C(=O)O (single isomer, unassigned) [compound 38] | 1480
4 | Nc1nc(Cl)nc2c1ncn2[C@@H]1O[C@H](COC(Cc2cnn(Cc3ccccc3)c2)(C(=O)O)C(=O)O)[C@@H](O)[C@@H]1F [compound 63, 2-(((2R,3R,4S,5R)-5-(6-amino-2-chloro-9H-purin-9-yl)-4-fluoro-3-hydroxytetrahydro-furan-2-yl)methoxy)-2-((1-benzyl-1H-pyrazol-4-yl)methyl)malonic acid] | 2010
5 | Nc1nc(Cl)nc2c1ncn2[C@@H]1O[C@H](COC(Cc2cccc(-c3nnn[nH]3)c2)(C(=O)O)C(=O)O)[C@@H](O)[C@@H]1F [compound 53, 2-(3-(1H-tetrazol-5-yl)benzyl)-2-(((2R,3R,4S,5R)-5-(6-amino-2-chloro-9H-purin-9-yl)-4-fluoro-3-hydroxytetrahydrofuran-2-yl)methoxy)malonic acid] | 2600
6 | COC(=O)C(Cc1ccc(-c2ccccc2)cc1)(OC[C@H]1O[C@@H](n2cnc3c(N)nc(Cl)nc32)[C@@H](F)[C@@H]1O)C(=O)O (single isomer, unassigned) [compound 81] | 2110
7 | Nc1nc(Cl)nc2c1ncn2[C@@H]1O[C@H](COC(Cc2ccccc2)(C(=O)O)C(=O)O)[C@@H](O)[C@H]1N [compound 55, 2-(((2R,3S,4R,5R)-4-amino-5-(6-amino-2-chloro-9H-purin-9-yl)-3-hydroxytetrahydrofuran-2-yl)methoxy)-2-benzylmalonic acid] | > 50000
8 | Nc1nc(Cl)nc2c1ncn2[C@@H]1O[C@H](COC(Cc2ccc(F)cc2)(C(=O)O)C(=O)O)[C@@H](O)[C@@H]1F [compound 47] | 669
9 | N#Cc1cccc(CC(OC[C@H]2O[C@@H](n3cnc4c(N)nc(N=[N+]=[N-])nc43)[C@@H](F)[C@@H]2O)(C(=O)O)C(=O)O)c1 [compound 40, 2-(((2R,3R,4S,5R)-5-(6-amino-2-azido-9H-purin-9-yl)-4-fluoro-3-hydroxytetrahydrofuran-2-yl)methoxy)-2-(3-cyanobenzyl)malonic acid] | 2410
10 | CS(=O)(=O)c1ccc(CC(OC[C@H]2O[C@@H](n3cnc4c(N)nc(Cl)nc43)[C@@H](F)[C@@H]2O)(C(=O)O)C(=O)O)cc1 [compound 21, 2-(((2R,3R,4S,5R)-5-(6-amino-2-chloro-9H-purin-9-yl)-4-fluoro-3-hydroxytetrahydrofuran-2-yl)methoxy)-2-(4-(methylsulfonyl)benzyl)malonic acid] | 510
11 | Nc1nc(Cl)nc2c1ncn2[C@@H]1O[C@H](COC(Cc2cn[nH]c2)(C(=O)O)C(=O)O)[C@@H](O)[C@@H]1F [compound 64, 2-((1H-pyrazol-4-yl)methyl)-2-(((2R,3R,4S,5R)-5-(6-amino-2-chloro-9H-purin-9-yl)-4-fluoro-3-hydroxytetrahydrofuran-2-yl)methoxy)malonic acid] | 588
12 | Nc1nc(Cl)nc2c1ncn2[C@@H]1O[C@H](COC(Cc2ccccc2)(C(=O)O)C(=O)O)[C@@H](O)[C@@H]1F [compound 6, 2-(((2R,3R,4S,5R)-5-(6-amino-2-chloro-9H-purin-9-yl)-4-fluoro-3-hydroxytetrahydro-furan-2-yl)methoxy)-2-benzylmalonic acid] | 489
13 | Nc1nc(Cl)nc2c1ncn2[C@@H]1O[C@H](COC(Cc2ccc3oc(C(=O)O)cc3c2)(C(=O)O)C(=O)O)[C@@H](O)[C@@H]1F [compound 88, 2-(((2R,3R,4S,5R)-5-(6-amino-2-chloro-9H-purin-9-yl)-4-fluoro-3-hydroxytetrahydro-furan-2-yl)methoxy)-2-((2-carboxybenzofuran-5-yl)methyl)malonic acid] | 443
14 | Nc1nc(Cl)nc2c1ncn2[C@@H]1O[C@H](COC(Cc2ccc(C(F)(F)F)o2)(C(=O)O)C(=O)O)[C@@H](O)[C@@H]1F [compound 59, 2-(((2R,3R,4S,5R)-5-(6-amino-2-chloro-9H-purin-9-yl)-4-fluoro-3-hydroxytetrahydro-furan-2-yl)methoxy)-2-((5-(trifluoromethyl)-furan-2-yl)methyl)malonic acid] | 6980

More lines, in order of falling IC50, values ahead:

Row | IC50 [nM] | Structure (SMILES)
15 | 9920 | [N-]=[N+]=Nc1nc(N)c2ncn([C@@H]3O[C@H](COC(Cc4cccc(-c5nnn[nH]5)c4)(C(=O)O)C(=O)O)[C@@H](O)[C@@H]3F)c2n1 [compound 43]
16 | 5840 | Nc1nc(Cl)nc2c1ncn2[C@@H]1O[C@H](COC(CC(=O)O)(C(=O)O)C(=O)O)[C@@H](O)[C@@H]1F [compound 19, 1-(((2R,3R,4S,5R)-5-(6-amino-2-chloro-9H-purin-9-yl)-4-fluoro-3-hydroxytetrahydrofuran-2-yl)methoxy)ethane-1,1,2-tricarboxylic acid]
17 | 4340 | Nc1nc(Cl)nc2c1ncn2[C@@H]1O[C@H](COC(Cc2ccccc2)(C(=O)O)C(=O)O)[C@@H](N)[C@H]1O [compound 51, 2-(((2S,3S,4R,5R)-3-amino-5-(6-amino-2-chloro-9H-purin-9-yl)-4-hydroxytetrahydrofuran-2-yl)methoxy)-2-benzylmalonic acid]
18 | 2380 | COc1cccc(CC(OC[C@H]2O[C@@H](n3cnc4c(N)nc(Cl)nc43)[C@@H](F)[C@@H]2O)(C(=O)O)C(=O)O)c1 [compound 49]
19 | 1810 | Nc1nc(Cl)nc2c1ncn2[C@@H]1O[C@H](COC(Cc2ccc3ccccc3c2)(C(=O)O)C(=O)O)[C@@H](O)[C@@H]1F [compound 17, 2-(((2R,3R,4S,5R)-5-(6-amino-2-chloro-9H-purin-9-yl)-4-fluoro-3-hydroxytetrahydrofuran-2-yl)methoxy)-2-(naphthalen-2-ylmethyl)malonic acid]
20 | 1310 | Nc1nc(Cl)nc2c1ncn2[C@@H]1O[C@H](COC(Cc2cnc(C(=O)O)s2)(C(=O)O)C(=O)O)[C@@H](O)[C@@H]1F [compound 67, 2-(((2R,3R,4S,5R)-5-(6-amino-2-chloro-9H-purin-9-yl)-4-fluoro-3-hydroxytetrahydro-furan-2-yl)methoxy)-2-((2-carboxythiazol-5-yl)methyl)malonic acid]
21 | 990 | N#Cc1ccc(CC(OC[C@H]2O[C@@H](n3cnc4c(N)nc(Cl)nc43)[C@@H](F)[C@@H]2O)(C(=O)O)C(=O)O)cc1F [compound 75, 2-(((2R,3R,4S,5R)-5-(6-amino-2-chloro-9H-purin-9-yl)-4-fluoro-3-hydroxytetrahydrofuran-2-yl)methoxy)-2-(4-cyano-3-fluorobenzyl)malonic acid]
22 | 598 | CCOC(=O)C(Cc1ccc(OC(F)(F)F)cc1)(OC[C@H]1O[C@@H](n2cnc3c(N)nc(Cl)nc32)[C@@H](F)[C@@H]1O)C(=O)O (single isomer, unassigned) [compound 37]
